This note sets out measurements from US7973061B2, “Anaplastic lymphoma kinase modulators and methods of use” (Exelixis, Inc., priority 2004, dated 2011).

This assay has as its target T1, ALK (baculovirus expressed human ALK kinase domain F1098-K1410) (Homo sapiens, UniProt Q9UM73).
T1 construct: human ALK kinase domain F1098-K1410; made in house
In words: biochemical. To be noted: 1 μM ATP, 4 μM poly-AEKY, 12 nM ALK, 2 hours at ambient temperature; read-out: ALK IC50. An outline of the steps:
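Baculovirus-expressed human ALK kinase domain (F1098-K1410) was run in a luciferase-coupled chemiluminescent format, with ATP near its KM. After 2 h at ambient temperature, remaining ATP was read by luciferase-luciferin luminescence. IC50 came from 10-point dose-response curves fitted to a four-parameter equation with Hill slope.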

T1 sequence (Q9UM73 1098-1410): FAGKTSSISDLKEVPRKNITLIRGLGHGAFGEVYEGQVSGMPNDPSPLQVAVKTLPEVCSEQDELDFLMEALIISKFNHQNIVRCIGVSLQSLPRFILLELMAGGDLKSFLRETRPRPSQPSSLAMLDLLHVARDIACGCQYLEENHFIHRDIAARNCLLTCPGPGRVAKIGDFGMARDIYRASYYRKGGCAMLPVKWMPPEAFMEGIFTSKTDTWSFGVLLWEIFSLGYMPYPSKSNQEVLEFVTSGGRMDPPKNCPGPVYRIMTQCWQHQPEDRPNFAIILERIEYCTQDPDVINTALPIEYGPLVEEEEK

As to `O=C(COc1ccc(OC(F)(F)F)cc1)NCc1nc(C(=O)NCc2ccc(F)cc2F)cs1` [Entry 258, N-[(2,4-difluorophenyl)methyl]-2-({[({4-[(trifluoromethyl)oxy]phenyl}oxy)acetyl]amino}methyl)-1,3-thiazole-4-carboxamide], the IC50 (usually the concentration that gives 50% inhibition) lay in the range of 0.5 to 2 µM.

Regarding `CC(CNC(=O)c1coc(CNC(=O)COc2ccc(OC(F)(F)F)cc2)n1)c1ccccc1` (stereo not shown) [Entry 259, N-(2-phenylpropyl)-2-({[({4-[(trifluoromethyl)oxy]phenyl}oxy)acetyl]amino}methyl)-1,3-oxazole-4-carboxamide], the IC50 is 0.5 to 2 µM.

Regarding `O=C(COc1ccc(OC(F)(F)F)cc1)NCc1nc(C(=O)NCCC(c2ccccc2)c2ccccc2)cs1` [Entry 260, N-(3,3-diphenylpropyl)-2-({[({4-[(trifluoromethyl)oxy]phenyl}oxy)acetyl]amino}methyl)-1,3-thiazole-4-carboxamide], the IC50 was 0.5 to 2 µM.

Turning to `O=C(COc1ccc(OC(F)(F)F)cc1)NCc1nc(C(=O)NCc2ccccc2Cl)co1` [Entry 261, N-[(2-chlorophenyl)methyl]-2-({[({4-[(trifluoromethyl)oxy]phenyl}oxy)acetyl]amino}methyl)-1,3-oxazole-4-carboxamide], the IC50 lay in the range of 0.5 to 2 µM.

Regarding `CC(C)CCC(C)NC(=O)c1csc(CNC(=O)COc2ccc(OC(F)(F)F)cc2)n1` (stereo not shown) [Entry 262, N-(1,4-dimethylpentyl)-2-({[({4-[(trifluoromethyl)oxy]phenyl}oxy)acetyl]amino}methyl)-1,3-thiazole-4-carboxamide], the IC50 lay in the range of 0.5 to 2 µM.

Consider `COc1ccccc1CNC(=O)c1csc(CNC(=O)COc2ccc(Cl)cc2)n1` [Entry 263, 2-[({[(4-chlorophenyl)oxy]acetyl}amino)methyl]-N-{[2-(methyloxy)phenyl]methyl}-1,3-thiazole-4-carboxamide], for which the half-inhibitory concentration (IC50) lay within 0.5 to 2 µM.

In the case of `C[C@H](NC(=O)c1coc(CNC(=O)COc2ccc(OC(F)(F)F)cc2)n1)C1CCCCC1` [Entry 264, N-[(1S)-1-cyclohexylethyl]-2-({[({4-[(trifluoromethyl)oxy]phenyl}oxy)acetyl]amino}methyl)-1,3-oxazole-4-carboxamide], the half-inhibitory concentration (IC50) was 0.5 to 2 µM.

As for `O=C(COc1ccc(OC(F)(F)F)cc1)NCc1nc(C(=O)NCC2CCCO2)cs1` (stereo not shown) [Entry 265, N-(tetrahydrofuran-2-ylmethyl)-2-({[({4-[(trifluoromethyl)oxy]phenyl}oxy)acetyl]amino}methyl)-1,3-thiazole-4-carboxamide], the IC50 fell in the range of 0.5 to 2 µM.

For the compound `O=C(COc1ccc(OC(F)(F)F)cc1)NCc1nc(C(=O)N2CC[C@H]3CCCC[C@@H]3C2)cs1` [Entry 266, N-({4-[(4aR,8aS)-octahydroisoquinolin-2(1H)-ylcarbonyl]-1,3-thiazol-2-yl}methyl)-2-({4-[(trifluoromethyl)oxy]phenyl}oxy)acetamide], the half-maximal inhibitory concentration (IC50) was in the range of 0.5 to 2 µM.

`O=C(COc1ccc(OC(F)(F)F)cc1)NCc1nc(C(=O)NCCCN2CCOCC2)cs1` [Entry 267, N-(3-morpholin-4-ylpropyl)-2-({[({4-[(trifluoromethyl)oxy]phenyl}oxy)acetyl]amino}methyl)-1,3-thiazole-4-carboxamide]: the IC50 lay in the range of 0.5 to 2 µM.

Regarding `COCC(C)NC(=O)c1csc(CNC(=O)COc2ccc(OC(F)(F)F)cc2)n1` (stereo not shown) [Entry 268, N-[1-methyl-2-(methyloxy)ethyl]-2-({[({4-[(trifluoromethyl)oxy]phenyl}oxy)acetyl]amino}methyl)-1,3-thiazole-4-carboxamide], the IC50 fell in the range of 0.5 to 2 µM.

For the compound `COCCCNC(=O)c1csc(CNC(=O)COc2ccc(OC(F)(F)F)cc2)n1` [Entry 269, N-[3-(methyloxy)propyl]-2-({[({4-[(trifluoromethyl)oxy]phenyl}oxy)acetyl]amino}methyl)-1,3-thiazole-4-carboxamide], the IC50 lay within 0.5 to 2 µM.

Regarding `CCN(CC)C(=O)C1CCCN(C(=O)c2csc(CNC(=O)COc3ccc(OC(F)(F)F)cc3)n2)C1` (stereo not shown) [Entry 270, N,N-diethyl-1-{[2-({[({4-[(trifluoromethyl)oxy]phenyl}oxy)acetyl]amino}methyl)-1,3-thiazol-4-yl]carbonyl}piperidine-3-carboxamide], the 50% inhibitory concentration (IC50) was in the range of 0.5 to 2 µM.

Take `O=C(COc1ccc(OC(F)(F)F)cc1)NCc1nc(C(=O)N2CC[C@@H]3CCCC[C@@H]3C2)cs1` [Entry 271, N-({4-[(4aS,8aS)-octahydroisoquinolin-2(1H)-ylcarbonyl]-1,3-thiazol-2-yl}methyl)-2-({4-[(trifluoromethyl)oxy]phenyl}oxy)acetamide]: the concentration for half-maximal inhibition (IC50) fell in the range of 0.5 to 2 µM.

For the compound `NC(=O)C1CCN(C(=O)c2csc(CNC(=O)COc3ccc(OC(F)(F)F)cc3)n2)CC1` [Entry 272, 1-{[2-({[({4-[(trifluoromethyl)oxy]phenyl}oxy)acetyl]amino}methyl)-1,3-thiazol-4-yl]carbonyl}piperidine-4-carboxamide], the IC50 lay within 0.5 to 2 µM.

In the case of `O=C(COc1ccc(OC(F)(F)F)cc1)NCc1nc(C(=O)NCCc2ccccc2Cl)co1` [Entry 273, N-[2-(2-chlorophenyl)ethyl]-2-({[({4-[(trifluoromethyl)oxy]phenyl}oxy)acetyl]amino}methyl)-1,3-oxazole-4-carboxamide], the IC50 was in the range of 0.5 to 2 µM.

For `O=C(COc1ccc(OC(F)(F)F)cc1)NCc1nc(C(=O)NCCN2CCCC2)cs1` [Entry 274, N-(2-pyrrolidin-1-ylethyl)-2-({[({4-[(trifluoromethyl)oxy]phenyl}oxy)acetyl]amino}methyl)-1,3-thiazole-4-carboxamide], the half-maximal inhibitory concentration (IC50) lay within 0.5 to 2 µM.

As for `CCN1CCCC1CNC(=O)c1csc(CNC(=O)COc2ccc(OC(F)(F)F)cc2)n1` (stereo not shown) [Entry 275, N-[(1-ethylpyrrolidin-2-yl)methyl]-2-({[({4-[(trifluoromethyl)oxy]phenyl}oxy)acetyl]amino}methyl)-1,3-thiazole-4-carboxamide], the IC50 was 0.5 to 2 µM.

Consider `O=C(C/C=C/c1ccccc1)NCc1nc(C(=O)NCCc2ccccc2F)cs1` [Entry 276, N-[2-(2-fluorophenyl)ethyl]-2-({[(3E)-4-phenylbut-3-enoyl]amino}methyl)-1,3-thiazole-4-carboxamide], for which the concentration for half-maximal inhibition (IC50) lay within 0.5 to 2 µM.

With `COc1ccccc1CNC(=O)c1csc(CNC(=O)COc2ccc(Br)cc2)n1` [Entry 277, 2-[({[(4-bromophenyl)oxy]acetyl}amino)methyl]-N-{[2-(methyloxy)phenyl]methyl}-1,3-thiazole-4-carboxamide], the IC50 was 0.5 to 2 µM.

On to `CC(C)(C)OC(=O)NC1CCN(C(=O)c2csc(CNC(=O)COc3ccc(OC(F)(F)F)cc3)n2)C1` (stereo not shown) [Entry 278, 1,1-dimethylethyl (1-{[2-({[({4-[(trifluoromethyl)oxy]phenyl}oxy)acetyl]amino}methyl)-1,3-thiazol-4-yl]carbonyl}pyrrolidin-3-yl)carbamate], for which the IC50 fell in the range of 0.5 to 2 µM.

For `O=C(COc1ccc(OC(F)(F)F)cc1)NCc1nc(C(=O)N2CCN(c3ccccn3)CC2)cs1` [Entry 279, N-({4-[(4-pyridin-2-ylpiperazin-1-yl)carbonyl]-1,3-thiazol-2-yl}methyl)-2-({4-[(trifluoromethyl)oxy]phenyl}oxy)acetamide], the IC50 is 0.5 to 2 µM.

For the compound `O=C(COc1ccc(OC(F)(F)F)cc1)NCc1nc(C(=O)NCC(F)(F)F)cs1` [Entry 280, N-(2,2,2-trifluoroethyl)-2-({[({4-[(trifluoromethyl)oxy]phenyl}oxy)acetyl]amino}methyl)-1,3-thiazole-4-carboxamide], the IC50 lay in the range of 0.5 to 2 µM.

In the case of `CC(=O)NCCNC(=O)c1csc(CNC(=O)COc2ccc(OC(F)(F)F)cc2)n1` [Entry 281, N-[2-(acetylamino)ethyl]-2-({[({4-[(trifluoromethyl)oxy]phenyl}oxy)acetyl]amino}methyl)-1,3-thiazole-4-carboxamide], the concentration for half-maximal inhibition (IC50) fell in the range of 0.5 to 2 µM.

As to `CC1CC(C)CN(C(=O)c2csc(CNC(=O)COc3ccc(OC(F)(F)F)cc3)n2)C1` (stereo not shown) [Entry 282, N-({4-[(3,5-dimethylpiperidin-1-yl)carbonyl]-1,3-thiazol-2-yl}methyl)-2-({4-[(trifluoromethyl)oxy]phenyl}oxy)acetamide], the IC50 was 0.5 to 2 µM.

In the case of `CCOC(=O)N1CCC(NC(=O)c2csc(CNC(=O)COc3ccc(OC(F)(F)F)cc3)n2)CC1` [Entry 283, ethyl 4-({[2-({[({4-[(trifluoromethyl)oxy]phenyl}oxy)acetyl]amino}methyl)-1,3-thiazol-4-yl]carbonyl}amino)piperidine-1-carboxylate], the IC50 lay in the range of 0.5 to 2 µM.

With `COc1ccccc1CNC(=O)c1csc(CNC(=O)C/C=C/c2ccccc2)n1` [Entry 284, N-{[2-(methyloxy)phenyl]methyl}-2-({[(3E)-4-phenylbut-3-enoyl]amino}methyl)-1,3-thiazole-4-carboxamide], the concentration for half-maximal inhibition (IC50) lay in the range of 0.5 to 2 µM.

`O=C(COc1ccc(OC(F)(F)F)cc1)NCc1nc(C(=O)NCc2ccncc2)cs1` [Entry 285, N-(pyridin-4-ylmethyl)-2-({[({4-[(trifluoromethyl)oxy]phenyl}oxy)acetyl]amino}methyl)-1,3-thiazole-4-carboxamide]: the IC50 was 0.5 to 2 µM.

For `O=C(COc1ccc(OC(F)(F)F)cc1)NCc1nc(C(=O)NCCCN2CCCC2=O)cs1` [Entry 286, N-[3-(2-oxopyrrolidin-1-yl)propyl]-2-({[({4-[(trifluoromethyl)oxy]phenyl}oxy)acetyl]amino}methyl)-1,3-thiazole-4-carboxamide], the IC50 fell in the range of 0.5 to 2 µM.

As for `COCCNC(=O)c1csc(CNC(=O)COc2ccc(OC(F)(F)F)cc2)n1` [Entry 287, N-[2-(methyloxy)ethyl]-2-({[({4-[(trifluoromethyl)oxy]phenyl}oxy)acetyl]amino}methyl)-1,3-thiazole-4-carboxamide], the IC50 was 0.5 to 2 µM.

`Cc1ccccc1CNC(=O)c1coc(CNC(=O)COc2ccc(OC(F)(F)F)cc2)n1` [Entry 288, N-[(2-methylphenyl)methyl]-2-({[({4-[(trifluoromethyl)oxy]phenyl}oxy)acetyl]amino}methyl)-1,3-oxazole-4-carboxamide]: the IC50 fell in the range of 0.5 to 2 µM.
